According to patent publication US7977364B2, “Indazoles, benzisoxazoles and benzisothiazoles and their use as estrogenic agents” (Laboratoire Thermamex, priority 2004, dated 2011):
Read-outs that look alike come from different tables or passages of the source.

Legend:
[1] = tested on: human endometrial adenocarcinoma Ishikawa cells; assay: Estrogenic and anti-estrogenic activities in vitro: induction of alkaline phosphatase (APase) activity; assay type: cell-based
Method in brief: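 Ishikawa cells in phenol red-free DMEM with 5% charcoal-stripped dFCS; after incubation, APase measured via 5 mM p-nitrophenyl phosphate hydrolysis at pH 9.8, read at 405 nm after 15-60 min at room temperature. EC50 (estrogenic) and IC50 (anti-estrogenic) from sigmoidal dose-response curves.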

[2] = tested on: human breast cancer cell line MCF-7; assay: Proliferative activity in vitro (ATP luminescence, 6 days); assay type: cell-based; details: Homo sapiens, MCF7, 144 h
Method in brief: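 Proliferative (estrogen-like) response of MCF-7 cells held in phenol red-free DMEM with 5% charcoal-stripped serum, seeded at 4.10^3 cells/well. Compounds in estrogen-free DMEM for six days at 37 °C. Viable cells by ATP luciferase luminescence as % of control; EC50 from sigmoidal dose-response curves.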

[3] = tested on: Prepubescent female rats; assay: Estrogenic / uterotrophic activity in vivo (uterus wet weight); set-up: species or system rat; details: for change in vivo at 3 mg: orally 3 mg/rat/day for 3 days
Method in brief: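 Prepubescent female rats dosed orally for 3 days at 3 mg/rat/day, or at 0.3, 1, 3 or 10 mg/rat/day. Uteri removed the following day and wet-weighed; values given as % stimulation of uterine weight over vehicle.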

[4] = target: purified full-length recombinant human ERβ (Homo sapiens, UniProt Q92731); assay: Estrogen receptor β competitive radiometric binding assay ([3H]-E2)
Sequence of purified full-length recombinant human ERβ (Q92731 whole entry): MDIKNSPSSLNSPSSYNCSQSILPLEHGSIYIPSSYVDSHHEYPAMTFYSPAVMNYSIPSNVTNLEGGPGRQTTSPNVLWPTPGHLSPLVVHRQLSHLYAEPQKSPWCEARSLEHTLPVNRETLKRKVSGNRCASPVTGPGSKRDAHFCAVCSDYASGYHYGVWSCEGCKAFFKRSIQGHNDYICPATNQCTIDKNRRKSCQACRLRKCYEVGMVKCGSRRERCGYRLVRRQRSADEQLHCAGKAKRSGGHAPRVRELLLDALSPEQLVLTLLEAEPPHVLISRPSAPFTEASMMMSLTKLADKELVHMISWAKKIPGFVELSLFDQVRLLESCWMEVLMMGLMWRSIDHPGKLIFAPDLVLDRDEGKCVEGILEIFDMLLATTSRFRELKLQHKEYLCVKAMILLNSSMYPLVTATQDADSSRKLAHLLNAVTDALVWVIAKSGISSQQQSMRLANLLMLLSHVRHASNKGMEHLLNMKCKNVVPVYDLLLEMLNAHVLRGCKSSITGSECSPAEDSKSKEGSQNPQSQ

[5] = tested on: ovariectomized rats; assay: Hot flush model in vivo: tail skin temperature, uteri and body weight

Oc1ccc2c(C3CCCC3)n[nH]c2c1 [Ex 23, 3-cyclopentyl-1H-indazol-6-ol]
EC50 ([1]; Homo sapiens, Ishikawa, 96 h, compound alone, four days, ND = not detected, read-out: Estrogenic activity EC50 (nM) ± S.E.M): 1700 ± 168 nM
estrogenic effect in alkaline phosphatase activity in the Ishikawa cell model ([1]; in words): weak estrogenic effect
activity at 1 µM ([2]; MCF-7, 10^−6 M, six days, read-out: Effect at 10^−6 M (% of control)): 176%
activity at 0.01 µM ([2]; MCF-7, 10^−8 M, six days, read-out: Effect at 10^−8 M (% of control)): 81.7%
EC50 ([2]; MCF-7, six days, read-out: Cell proliferation EC50 (nM) ± S.E.M): 376 ± 70.1 nM
change in vivo at 3 mg ([3]; Rattus norvegicus, po, 72 h, Table 4, read-out: % stimulation vs vehicle (uterus weight)): 12%
change in vivo at 0.3 mg ([3]; Rattus norvegicus, po, 72 h, Table 5, orally 0.3 mg/rat/day for 3 days, read-out: % stimulation vs vehicle (uterus weight)): -13%
change in vivo at 1 mg ([3]; Rattus norvegicus, po, 72 h, Table 5, orally 1 mg/rat/day for 3 days, read-out: % stimulation vs vehicle (uterus weight)): -5%
change in vivo at 3 mg ([3]; Rattus norvegicus, po, 72 h, Table 5, read-out: % stimulation vs vehicle (uterus weight)): -4%
change in vivo at 10 mg ([3]; Rattus norvegicus, po, 72 h, Table 5, orally 10 mg/rat/day for 3 days, read-out: % stimulation vs vehicle (uterus weight)): 20%
in vivo estrogenic activity after oral administration ([3]; in words): weak in vivo estrogenic activity
uterotrophicity after oral administration ([3]; up to a 3 mg/animal/day dosage, in words): lack of uterotrophicity
IC50 [4]: 41.8 ± 7.1 nM
ligand to estrogen receptor beta ([4]; in words): potent ligand
selectivity for the human recombinant estrogen receptor β ([4]; in words): marked selectivity
RBA (%) Mean ± S.E.M, ER β ([4]; ratio of IC50s of E2 and competitor, E2 set at 100%): 10.4 ± 4.0%
R (IC50s) αβ ([4]; ratio of the IC50 for ERα to the IC50 for ERβ): 31.9
TST Variation day 1 vs day 0 ([5]; 0.3 mg/rat/day): −0.8 C. °
TST Variation day 4 vs day 0 ([5]; 0.3 mg/rat/day): −2.1 C. °
TST Variation day 7 vs day 0 ([5]; 0.3 mg/rat/day): −1.9 C. °
tail skin temperature of ovariectomized rat ([5]; in words): decreased tail skin temperature
